Source: patent US9381166B2 (Rigshospitalet, priority 2007, dated 2016)
Where two headings read alike, the source gives them in different places.

Key:
[1] = Plasma potassium concentration before and after adrenaline and Seloken; type: in vivo, human
Description: Plasma K+ concentrations where followed before and after administration of both adrenaline and Seloken (beta blocker).

[2] = Hemodynamic monitoring during adrenaline infusion without or with Seloken; type: in vivo, human
Description: FIG. 11: The healthy subjects described in FIG. 10 were monitored haemodynamically at the same time points as described in FIG. 10. (a) heart rate (HR), (b) cardiac output (CO), (c) stroke volume (SV), (d) invasive blood pressure: mean arterial pressure, MAP) and (d) total peripheral resistance (TPR). […] The conc x treatment is an analysis of the total response/the total pattern, to check whether there is an interaction between concentration and treatment. […] ANOVA: Analysis of variance.
The hemodynamic changes comprising heart rate (HR), cardiac output (CO), stroke volume (SV), mean arterial pressure (MAP) and total peripheral resistance (TPR) were monitored during the protocol described in example 7 and FIG. 10.

hemostatic system [3] = assay: TEG MA with combination of adrenergic receptor agonist and antagonists; type: in vivo, human
Protocol: FIG. 10: Seven healthy volunteers received 3 doses of adrenaline infusion lasting for 5 minutes each in the following step-wise increasing doses 3.5, 5.0 and 6.0 μg/kg/h. After resting 1 hour, the subjects received 0.15 μg/kg Seloken i.v. and rested again 30 minutes before repeating the step-wise adrenaline infusions. Blood samples were obtained from an arterial catheter at baseline (t=0.0), after each of the first adrenaline doses (t=5.0, t=10.1, t=15.0), at baseline after Seloken administration and rest (t=0.1) and after each of the subsequent adrenaline infusions (t=5.1, t=10.1, t=15.1). The blood was analyzed with TEG as described in FIG. 3 and Example 1. TEG MA values are presented as mean with 95% Cl and analyzed with a 2-way repeated measurements (RM) ANOVA with post hoc Bonferroni adjusted paired t-test of t=0.0 vs. t=5.0, t=10.1, t=15.0, respectively and t=0.1 vs. t=5.1, t=10.1, t=15.1, ***p<0.001.
Healthy volunteers rested 1 hour before receiving step-wise i.v. administration of adrenaline in the doses 3.5, 5.0 and 6.0 μg/kg/h, five minutes infusion at each dose, as described in FIG. 4. Hereafter the subjects rested for 1 hour and received an antagonist by i.v. infusion propanolol (primarily a β-2 antagonist, 0.15 mg/kg for 10 minutes), n=8, Urapidil (α-1 antagonist, 50 mg) or Seloken (β-1 antagonist 0.15 mg/kg for 10 minutes), n=7. […]

hemostatic system [4] = assay: Thrombelastography (TEG) of arterial whole blood after i.v. infusion in healthy volunteers; type: in vivo, human
Protocol: FIG. 3: Representative TEG profile of healthy volunteers before and after administration of adrenaline. Whole blood was drawn in 1/10 citrate from an arterial catheter. The citrated whole blood sample rested exactly 30 minutes at room temperature before TEG analysis on the Thrombelastograph Hemostasis Analyser, series 5000 (Haemoscope Corp., Skokie, Ill.): One ml of citrated whole blood was transferred to a kaolin vial (Haemoscope Corp.) and gently mixed by inversion 5 times. From the kaolin vial 340 μl was added to a plain TEG cup preloaded with 20 μl of 0.2 M CaCl2 and the analysis started immediately.
FIG. 4: TEG parameters (a) R, (b) Angle and (c) MA of 30 healthy volunteers after totally 15 minutes of i.v. administration of adrenaline. The subjects were catheterized and rested 60 minutes before administration of adrenaline was commenced. Adrenaline was step-wise infused intravenously for 5 minutes at each of the doses 3.5 μg/kg/h, 5.0 μg/kg/h and 6.0 μg/kg/h. Blood samples were collected from an arterial catheter at baseline (t=0) and immediately after each dose (t=5, t=10 and t=15).
FIG. 5: TEG MA measured before and after i.v. infusion of noradrenaline at 4.8 μg/kg/h for 15 minutes in 10 healthy volunteers, mean with 95% Cl. MA before and after noradrenaline was compared by a paired t-test with a p-value<0.05 considered statistically significant.
FIG. 6: TEG MA measured before (t=0) and after i.v. infusion of adrenaline at 4.8 μg/kg/h for 15 minutes (t=15) and 30 minutes after discontinuation of adrenaline administration (t=45). Data presented as mean with 95% Cl.
A whole blood sample for TEG analysis was drawn into a tube containing citrate (9 volumes of blood into 1 volume of 0.129 M citrate; […] system, BD Biosciences, Plymouth, UK) and rested for exactly 30 minutes before analysis: Coagulation was initiated by kaolin and re-calcified according to the instructions of the manufacturer: Citrated whole blood was added to a kaolin vial and mixed by gently inversion 5 times before transfer to the TEG cup containing calcium chloride (20 μl of 0.2 M CaCl2), which was preloaded into the TEG® cup as published previously [Johansson et al. 2008]. The hemostatic process was recorded by use of a TEG® coagulation analyzer (5000 series, Haemoscope Corporation). Adrenaline was mixed with 0.9% NaCl and infused intravenously.
FIG. 3 illustrates TEG profiles from a representative volunteer before and after receiving intravenous infusion of adrenaline 3 μg/kg/h for 15 minutes.

[5] = i.v. step-wise 1, 2, 3 μg/kg/h or 3 μg/kg/h for 15 minutes before skin incision, vs 40 control patients
Protocol: The 2 intervention groups were compared to 40 controls also undergoing prostatectomy, whereof 20 underwent surgery prior to the interventions and the last 20 after the intervention. All values including median for each group is depicted. Comparisons between control group and each of the intervention groups was done separately by Mann Whitney test.
Blood loss of the 10 patients described in example 2 and 10 additional prostatectomy patients receiving a 15 minutes continuous adrenaline infusion of 3 μg/kg/h before skin incision were compared to 40 control patients, not receiving adrenaline, whereof 20 were operated before the interventions and the last 20 subsequently after the intervention (FIG. 8).

hemostatic system [6] = test system: hemostatic system
Protocol: FIG. 7: TEG parameters (a) R, (b) Angle and (c) MA measured as described in FIG. 3 and example 1 on blood samples collected from patients infused with adrenaline prior to prostatectomy. Ten patients were anesthetized by propofol and haldid and infused with adrenaline i.v. in the doses 1, 2 and 3 μg/kg/h each for 5 minutes prior to skin incision. Hereafter the patients were prostatectomised according to local protocol. Blood samples were collected from an arterial catheter before adrenaline administration and immediately after each infusion dose (1, 2 and 3 μg/kg/h) and again 1 hour after discontinuation of adrenaline infusion. Statistics used: One-way ANOVA, Friedman Test, and Dunn's Multiple Comparison post hoc test of “before” compared to each of the following points 1, 2, 3 μg/kg/h and 1 hour after termination of adrenaline infusion, *p<0.05, **p<0.01,***p<0.001, ns: non significant.
Patients undergoing prostatectomy were anaesthetized by propofol and haldid. Prior to skin incision the patients received a step-wise i.v. infusion of adrenaline in the doses 1, 2 and 3 μg/kg/h each for 5 minutes. TEG analyses were performed as described in example 1, exactly 30 minutes after collection of arterial blood. Blood samples were obtained before and after each dose and 1 hour after discontinuation of adrenaline infusion.

[7] = in response to adrenaline infusions
[8] = healthy volunteers, i.v. adrenaline 3 μg/kg/h for 15 minutes (FIG. 3, FIG. 4)
[9] = prostatectomy patients, step-wise i.v. 1, 2 and 3 μg/kg/h each for 5 minutes

Protocol for fibrinolysis: Arterial blood was collected in citrate before and after the last adrenaline dose (t=15) and again 30 minutes after end of infusion (t=45). The blood was analyzed with TEG (described in FIG. 3) after addition of tissue plasminogen activator (tPA) in a final concentration of 2.4 nM. (a) A representative example of TEG tracings with tPA induced fibrinolysis before and immediately after infusions of adrenaline. (b) Comparisons of the lysis AUC values t=0 vs. t=15 and t=0 vs. t=45, respectively by 1-way ANOVA, Friedman test and post hoc Dunn's Multiple Comparison Test, **p<0.01, ns: not significant.
When challenging the clot in vitro by induction of fibrinolyis, the Lysis AUC obtained by TEG (see FIG. 2) is a measure of the clot's resistance against fibrinolysis. Healthy subject received step-wise adrenaline infusion as described in FIG. 4, and blood was collected before (t=0), immediately after the infusion (t=15) and 30 minutes after discontinuation (t=45). Citrated whole blood was analysed precisely 30 minutes after blood collection: The fibrinolysis activator tPA (American Diagnostica) was added in a final concentration of 2.4 nM and TEG was performed as described in Example 1 and FIG. 3.

Compound: COCCc1ccc(OCC(O)CNC(C)C)cc1 (stereo not shown) [Seloken, Metoprolol]
- drop in plasma potassium concentration after adrenaline ([1]; Seloken administered prior to adrenaline): less
- adrenaline-induced increase in SV ([2]; after Seloken administration): not significantly lowered
- adrenaline-induced decrease in TPR ([2]; after Seloken treatment): significantly lower decrease
- adrenaline-induced increase in CO ([2]; when Seloken was administered, all adrenaline concentrations): significantly lower
- adrenaline-induced increase in HR ([2]; when Seloken was infused before adrenaline): practically abrogated/normalized
- effect of antagonist on the MA increase after adrenaline (hemostatic system [3]; antagonist i.v. 30 minutes before repeated step-wise adrenaline 3.5, 5.0, 6.0 μg/kg/h, Seloken 0.15 mg/kg for 10 minutes): not affected

Compound: CNC[C@H](O)c1ccc(O)c(O)c1 [adrenaline, (R)-4-(1-hydroxy-2-(methylamino)ethyl)benzene-1,2-diol]
- plasma potassium concentrations following administration ([1]; three healthy volunteers): fell
- heart rate (HR) ([2]; adrenaline alone, 3.5, 5.0, 6.0 μg/kg/h): increased HR significantly
- total peripheral resistance (TPR) ([2]; all adrenaline doses, with and without Seloken): significant decrease
- mean arterial pressure (MAP) ([2]; any of the adrenaline doses used): no effects
- cardiac output (CO) [2, 7]: increase in CO
- stroke volume (SV) [2, 7]: increase in SV
- effect on Lysis AUC after discontinuation (fibrinolysis; 30 minutes after discontinuation of infusion (t=45)): abrogated
- increase of Lysis AUC (resistance against fibrinolysis) (fibrinolysis; healthy subjects, step-wise 3.5, 5.0, 6.0 μg/kg/h, t=15 vs t=0, tPA 2.4 nM): 154%
- time until MA returns to baseline after discontinuation of infusion (hemostatic system [4]; healthy volunteers, 4.8 μg/kg/h for 15 minutes (FIG. 6)): ≤ 30 min
- MA response (hemostatic system [4]; healthy volunteers, adrenaline infusion 3.5, 5.0, 6.0 μg/kg/h (FIG. 4c)): dose-dependent increase
- TEG Angle (thrombin generation) (hemostatic system [4]; [8]): increased
- TEG MA (mechanical clot strength) (hemostatic system [4]; [8]): increased
- TEG R (initiation of the coagulation process) (hemostatic system [4]; [8]): shorter
- TEG MA after adrenaline administration (hemostatic system [3]; healthy volunteers, step-wise 3.5, 5.0 and 6.0 μg/kg/h (FIG. 10)): increases
- perioperative blood loss [5]: reduced perioperative blood loss significantly
- pro-hemostatic effect versus dose (hemostatic system [6]; 1, 2 and 3 microgram/kg/hour, compared to baseline (FIG. 7)): dose dependent increase
- pro-hemostatic effect on clot strength (MA) after discontinuation (hemostatic system [6]; 60 min after discontinuation of infusion, prostatectomy patients): abated
- time until MA returns to baseline after discontinuation of infusion (hemostatic system [6]; prostatectomy patients (FIG. 7c)): ≤ 60 min
- TEG Angle (propagation and thrombin generation) (hemostatic system [6]; [9]): increased
- TEG MA (mechanical strength of the clot) (hemostatic system [6]; [9]): increased
- TEG R (initiation of the coagulation process) (hemostatic system [6]; [9]): decreased

Compound: NC[C@H](O)c1ccc(O)c(O)c1 [noradrenaline, 4-(2-Amino-1-hydroxyethyl)benzene-1,2-diol]
- pro-hemostatic effect (TEG MA) (hemostatic system [4]; 10 healthy subjects, i.v. 4.8 μg/kg/h for 15 minutes (FIG. 5)): pro-hemostatic effect
